Tests used:
bermudagrass = test: Test C pre-/postemergence test; format: in vivo, Cynodon dactylon; conditions: for Plant response rating, Bermudagrass: 31 g ai/ha
Procedure, shortened: (§1)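 Seeds were planted and treated preemergence with test chemical in a non-phytotoxic solvent mixture containing surfactant. Postemergence applications of the same formulation went onto plants 2 to 18 cm tall (1- to 4-leaf stage). A dash marks no test result.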

morningglory = test: Test A pre-/postemergence greenhouse test; format: in vivo, Ipomoea spp.; conditions: for Morningglory plant response rating: 0 to 100 scale; for Plant response rating, Morningglory: 0 to 100 scale where 0 is no effect and 100 is complete control
Procedure, shortened: (§2)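 Pre: directed soil spray on seeded loam/sand. Post: foliar spray, plants 2–10 cm, 1–2 leaf stage, applied concurrently. Vehicle: non-phytotoxic solvent + surfactant. Greenhouse ~10 d; visual injury rating vs untreated controls.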

Goosegrass = test: Test C pre-/postemergence test; format: in vivo, Eleusin indica; conditions: for Plant response rating, Goosegrass: 31 g ai/ha, scale 0 to 100 (0 no effect, 100 complete control)
Procedure, shortened: as §1

giant foxtail = test: Test A pre-/postemergence greenhouse test; format: in vivo, Setaria faberi; conditions: for Foxtail, Giant plant response rating: 0 to 100 scale; for Plant response rating, Foxtail, Giant: 0 to 100 scale where 0 is no effect and 100 is complete control
Procedure, shortened: as §2

barnyardgrass [1] = test: Test C flooded paddy test; format: in vivo, Echinochloa crus-galli; conditions: Flood
Procedure, shortened: (§3)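 Under a constant 3 cm flood, test compounds went directly into the paddy water. Following 13 to 15 days of greenhouse growth, treated species and controls were compared by eye.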

kochia = test: Test C pre-/postemergence test; format: in vivo, Kochia scoparia; conditions: for Plant response rating, Kochia: 31 g ai/ha, scale 0 to 100 (0 no effect, 100 complete control)
Procedure, shortened: as §1

[2] = test system: common (oilseed) sunflower; test: Test C pre-/postemergence test; format: in vivo, Helianthus annuus; conditions: for Plant response rating, Sunflower: 31 g ai/ha, scale 0 to 100 (0 no effect, 100 complete control)
Procedure, shortened: as §1

crabgrass [3] = test: Test A pre-/postemergence greenhouse test; format: in vivo, Digitaria sanguinalis; conditions: for Crabgrass, Large plant response rating: 0 to 100 scale; for Plant response rating, Crabgrass, Large: 0 to 100 scale where 0 is no effect and 100 is complete control
Procedure, shortened: as §2

crabgrass [4] = test: Test C pre-/postemergence test; format: in vivo, Digitaria sanguinalis; conditions: for Plant response rating, Crabgrass, Large: 31 g ai/ha, scale 0 to 100 (0 no effect, 100 complete control)
Procedure, shortened: as §1

Italian ryegrass = test: Test C pre-/postemergence test; format: in vivo, Lolium multiflorum; conditions: for Plant response rating, Ryegrass, Italian: 31 g ai/ha, scale 0 to 100 (0 no effect, 100 complete control)
Procedure, shortened: as §1

lambsquarters = test: Test C pre-/postemergence test; format: in vivo, Chenopodium album; conditions: for Plant response rating, Lambsquarters: 31 g ai/ha, scale 0 to 100 (0 no effect, 100 complete control)
Procedure, shortened: as §1

Surinam grass = test: Test C pre-/postemergence test; format: in vivo, Brachiaria decumbens; conditions: for Plant response rating, Surinam Grass: 31 g ai/ha, scale 0 to 100 (0 no effect, 100 complete control)
Procedure, shortened: as §1

umbrella sedge = test: Test C flooded paddy test; format: in vivo, Cyperus difformis; conditions: Flood
Procedure, shortened: as §3

pigweed = test: Test C pre-/postemergence test; format: in vivo, Amaranthus retroflexus; conditions: for Plant response rating, Pigweed: 31 g ai/ha, scale 0 to 100 (0 no effect, 100 complete control)
Procedure, shortened: as §1

cocklebur = test: Test C pre-/postemergence test; format: in vivo, Xanthium strumarium; conditions: for Plant response rating, Cocklebur: 31 g ai/ha, scale 0 to 100 (0 no effect, 100 complete control)
Procedure, shortened: as §1

soybean = test: Test C pre-/postemergence test; format: in vivo, Glycine max; conditions: for Plant response rating, Soybean: 31 g ai/ha, scale 0 to 100 (0 no effect, 100 complete control)
Procedure, shortened: as §1

barnyardgrass [5] = test: Test A pre-/postemergence greenhouse test; format: in vivo, Echinochloa crus-galli; conditions: for Barnyardgrass plant response rating: 0 to 100 scale; for Plant response rating, Barnyardgrass: 0 to 100 scale where 0 is no effect and 100 is complete control
Procedure, shortened: as §2

[6] = 62 g ai/ha, Preemergence, scale 0 to 100 (0 no effect, 100 complete control)
[7] = Preemergence, scale 0 to 100 (0 no effect, 100 complete control)
[8] = preemergence, 125 g ai/ha, scale 0 (no effect) to 100 (complete control)
[9] = Postemergence, 125 g ai/ha, 0 is no effect, 100 is complete control
[10] = Postemergence, 500 g ai/ha, 0 is no effect, 100 is complete control
[11] = Preemergence, 125 g ai/ha, 0 no effect, 100 complete control
[12] = 62 g ai/ha, Preemergence, scale 0 to 100
[13] = 31 g ai/ha, scale 0 to 100 (0 no effect, 100 complete control)
[14] = 62 g ai/ha, scale 0 to 100, 0 no effect, 100 complete control, 13 to 15 days
[15] = 125 g ai/ha, scale 0 to 100, 0 no effect, 100 complete control, 13 to 15 days
[16] = 250 g ai/ha, scale 0 to 100, 0 no effect, 100 complete control, 13 to 15 days
[17] = 125 g ai/ha, preemergence, scale 0 (no effect) to 100 (complete control)
[18] = preemergence, 250 g ai/ha, scale 0 (no effect) to 100 (complete control)
[19] = 62 g ai/ha, scale 0 to 100 (0 no effect, 100 complete control)

## Cn1nc(C(F)(F)F)c(C[S+]([O-])c2cc(C(F)(F)F)cc[n+]2[O-])c1Cl (racemic) [Compound 34]
bermudagrass; [6]
  Bermudagrass plant response rating: 100
bermudagrass; [7]
  Plant response rating, Bermudagrass: 75
bermudagrass; Preemergence, 250 g ai/ha
  Plant response rating (0 to 100), Bermudagrass: 100
bermudagrass; [8]
  Bermudagrass plant response rating: 100
morningglory; [9]
  Morningglory plant response rating: 0
morningglory; [10]
  Morningglory plant response rating: 30
morningglory; [11]
  Morningglory plant response rating: 50
morningglory; Preemergence, 500 g ai/ha
  Plant response rating, Morningglory: 80
Goosegrass; [12]
  Goosegrass plant response rating: 98
Goosegrass; Preemergence
  Plant response rating, Goosegrass: 98
Goosegrass; Preemergence, 250 g ai/ha
  Plant response rating (0 to 100), Goosegrass: 100
Giant foxtail; [9]
  Foxtail, Giant plant response rating: 10
Giant foxtail; [10]
  Foxtail, Giant plant response rating: 60
Giant foxtail; [11]
  Foxtail, Giant plant response rating: 100
Giant foxtail; Preemergence, 500 g ai/ha
  Plant response rating, Foxtail, Giant: 100
Barnyardgrass [1]; [13]
  Plant response rating, Barnyardgrass: 0
Barnyardgrass [1]; [14]
  Plant response rating, Barnyardgrass: 0
Barnyardgrass [1]; [15]
  Plant response rating, Barnyardgrass: 0
Barnyardgrass [1]; [16]
  Plant response rating, Barnyardgrass: 30
kochia; [12]
  Kochia plant response rating: 0
kochia; Preemergence
  Plant response rating, Kochia: 0
[2]; [12]
  Sunflower plant response rating: 0
[2]; Preemergence
  Plant response rating, Sunflower: 0
Crabgrass [3]; [9]
  Crabgrass, Large plant response rating: 10
Crabgrass [3]; [10]
  Crabgrass, Large plant response rating: 70
Crabgrass [3]; [11]
  Crabgrass, Large plant response rating: 60
Crabgrass [3]; Preemergence, 500 g ai/ha
  Plant response rating, Crabgrass, Large: 70
Crabgrass [4]; [12]
  Crabgrass, Large plant response rating: 100
Crabgrass [4]; Preemergence
  Plant response rating, Crabgrass, Large: 98
Crabgrass [4]; Preemergence, 250 g ai/ha
  Plant response rating (0 to 100), Crabgrass, Large: 100
Italian ryegrass; [12]
  Ryegrass, Italian plant response rating: 0
Italian ryegrass; Preemergence
  Plant response rating, Ryegrass, Italian: 0
lambsquarters; [12]
  Lambsquarters plant response rating: 50
lambsquarters; Preemergence
  Plant response rating, Lambsquarters: 0
Surinam grass; [12]
  Surinam Grass plant response rating: 0
Surinam grass; Preemergence
  Plant response rating, Surinam Grass: 0
Umbrella sedge; [13]
  Plant response rating, Sedge, Umbrella: 0
Umbrella sedge; [14]
  Plant response rating, Sedge, Umbrella: 85
Umbrella sedge; [15]
  Plant response rating, Sedge, Umbrella: 85
Umbrella sedge; [16]
  Plant response rating, Sedge, Umbrella: 90
pigweed; [12]
  Pigweed plant response rating: 100
pigweed; Preemergence
  Plant response rating, Pigweed: 100
cocklebur; [12]
  Cocklebur plant response rating: 0
cocklebur; Preemergence
  Plant response rating, Cocklebur: 0
cocklebur; Preemergence, 250 g ai/ha
  Plant response rating (0 to 100), Cocklebur: 30
cocklebur; [8]
  Cocklebur plant response rating: 0
soybean; [12]
  Soybean plant response rating: 0
soybean; Preemergence
  Plant response rating, Soybean: 0
Barnyardgrass [5]; [9]
  Barnyardgrass plant response rating: 40
Barnyardgrass [5]; [10]
  Barnyardgrass plant response rating: 60
Barnyardgrass [5]; [11]
  Barnyardgrass plant response rating: 80
Barnyardgrass [5]; Preemergence, 500 g ai/ha
  Plant response rating, Barnyardgrass: 100

## CC(Oc1c(C[S+]([O-])c2ccc(Cl)c[n+]2[O-])c(C(F)(F)F)nn1C)C(F)(F)F (centres unmarked) [Compound 87]
bermudagrass; [6]
  Bermudagrass plant response rating: 100
bermudagrass; [17]
  Bermudagrass plant response rating: 100
bermudagrass; [7]
  Plant response rating, Bermudagrass: 100
bermudagrass; [18]
  Bermudagrass plant response rating: 100
morningglory; Postemergence, 125 g ai/ha
  Plant response rating, Morningglory: 40
morningglory; [10]
  Morningglory plant response rating: 100
morningglory; [11]
  Morningglory plant response rating: 20
morningglory; Preemergence, 500 g ai/ha
  Plant response rating, Morningglory: 100
Goosegrass; [12]
  Goosegrass plant response rating: 100
Goosegrass; [17]
  Goosegrass plant response rating: 100
Goosegrass; Preemergence
  Plant response rating, Goosegrass: 98
Goosegrass; [18]
  Goosegrass plant response rating: 100
Giant foxtail; Postemergence, 125 g ai/ha
  Plant response rating, Foxtail, Giant: 90
Giant foxtail; [10]
  Foxtail, Giant plant response rating: 90
Giant foxtail; [11]
  Foxtail, Giant plant response rating: 90
Giant foxtail; Preemergence, 500 g ai/ha
  Plant response rating, Foxtail, Giant: 100
Barnyardgrass [1]; [19]
  Plant response rating, Barnyardgrass: 30
Barnyardgrass [1]; [16]
  Plant response rating, Barnyardgrass: 90
kochia; [12]
  Kochia plant response rating: 75
kochia; [17]
  Kochia plant response rating: 80
kochia; Preemergence
  Plant response rating, Kochia: 50
kochia; [18]
  Kochia plant response rating: 95
[2]; [12]
  Sunflower plant response rating: 50
[2]; [17]
  Sunflower plant response rating: 55
[2]; Preemergence
  Plant response rating, Sunflower: 40
[2]; [18]
  Sunflower plant response rating: 70
Crabgrass [3]; Postemergence, 125 g ai/ha
  Plant response rating, Crabgrass, Large: 80
Crabgrass [3]; [10]
  Crabgrass, Large plant response rating: 90
Crabgrass [3]; [11]
  Crabgrass, Large plant response rating: 90
Crabgrass [3]; Preemergence, 500 g ai/ha
  Plant response rating, Crabgrass, Large: 100
Crabgrass [4]; [12]
  Crabgrass, Large plant response rating: 95
Crabgrass [4]; [17]
  Crabgrass, Large plant response rating: 100
Crabgrass [4]; Preemergence
  Plant response rating, Crabgrass, Large: 80
Crabgrass [4]; [18]
  Crabgrass, Large plant response rating: 100
Italian ryegrass; [12]
  Ryegrass, Italian plant response rating: 95
Italian ryegrass; [17]
  Ryegrass, Italian plant response rating: 100
Italian ryegrass; Preemergence
  Plant response rating, Ryegrass, Italian: 95
Italian ryegrass; [18]
  Ryegrass, Italian plant response rating: 100
lambsquarters; [12]
  Lambsquarters plant response rating: 85
lambsquarters; [17]
  Lambsquarters plant response rating: 100
lambsquarters; Preemergence
  Plant response rating, Lambsquarters: 60
lambsquarters; [18]
  Lambsquarters plant response rating: 100
Surinam grass; [12]
  Surinam Grass plant response rating: 95
Surinam grass; [17]
  Surinam Grass plant response rating: 95
Surinam grass; Preemergence
  Plant response rating, Surinam Grass: 80
Surinam grass; [18]
  Surinam Grass plant response rating: 98
Umbrella sedge; [19]
  Plant response rating, Sedge, Umbrella: 60
Umbrella sedge; [16]
  Plant response rating, Sedge, Umbrella: 95
pigweed; [12]
  Pigweed plant response rating: 75
pigweed; [17]
  Pigweed plant response rating: 95
pigweed; Preemergence
  Plant response rating, Pigweed: 10
pigweed; [18]
  Pigweed plant response rating: 100
cocklebur; [12]
  Cocklebur plant response rating: 0
cocklebur; [17]
  Cocklebur plant response rating: 20
cocklebur; Preemergence
  Plant response rating, Cocklebur: 0
cocklebur; [18]
  Cocklebur plant response rating: 40
soybean; [12]
  Soybean plant response rating: 65
soybean; [17]
  Soybean plant response rating: 80
soybean; Preemergence
  Plant response rating, Soybean: 65
soybean; [18]
  Soybean plant response rating: 80
Barnyardgrass [5]; Postemergence, 125 g ai/ha
  Plant response rating, Barnyardgrass: 80
Barnyardgrass [5]; [10]
  Barnyardgrass plant response rating: 90
Barnyardgrass [5]; [11]
  Barnyardgrass plant response rating: 90
Barnyardgrass [5]; Preemergence, 500 g ai/ha
  Plant response rating, Barnyardgrass: 100

From patent US20100298141A1, “SUBSTITUTED PYRIDINE N-OXIDE HERBICIDES” (E. I. DU PONT DE NEMOURS AND COMPANY, priority 2007, published 2010)
